For eleven molecules, IC50 results are on record in US20070072874A1, “Aminoheteroaryl compounds as protein kinase inhibitors” (Sugen, Inc., priority 2003, published 2007).

For one experiment, the target named is T1, GST fusion protein containing the Met kinase domain (Homo sapiens, UniProt P08581).
T1 construct: Purified GST fusion protein containing the Met kinase domain, SUGEN, Inc
T1 sequence (P08581 1078-1345 limits assumed): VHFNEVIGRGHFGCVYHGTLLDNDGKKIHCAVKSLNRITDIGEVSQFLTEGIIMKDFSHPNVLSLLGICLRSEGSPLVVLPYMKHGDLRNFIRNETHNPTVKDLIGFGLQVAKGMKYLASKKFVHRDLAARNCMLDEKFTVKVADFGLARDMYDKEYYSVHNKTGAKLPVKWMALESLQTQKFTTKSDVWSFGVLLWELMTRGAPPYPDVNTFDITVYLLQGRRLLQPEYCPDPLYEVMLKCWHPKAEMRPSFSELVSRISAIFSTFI
Briefly: MET transphosphorylation assay (ELISA, poly(glu-tyr) substrate). In kind it is biochemical.
Details: not given
(In an ELISA, binding on a coated surface is turned into a signal by an enzyme label.)
For orientation: IC50 means the midpoint of a concentration-inhibition curve. Lower therefore signals higher potency. As to `CC(Oc1cc(-c2ccc(C(=O)N3CCC(N)CC3)cc2)cnc1N)c1c(Cl)ccc(F)c1Cl` (centres unmarked) [Example I-305, (4-{6-Amino-5-[1-(2,6-dichloro-3-fluoro-phenyl)-ethoxy]-pyridin-3-yl}-phenyl)-(4-amino-pipendin-1-yl)-methanone], the midpoint of inhibition, the IC50, lay at 18 nM.
The same measure, in the same setting: under `CC(Oc1cc(-c2ccc(C(=O)N3CCC(N4CCCC4)CC3)cc2)cnc1N)c1c(F)ccc(F)c1Cl` (centres unmarked) [Example I-339, (4-{6-Amino-5-[1-(2-chloro-3,6-difluoro-phenyl)-ethoxy]-pyridin-3-yl}-phenyl)-(4-pyrrolidin-1-yl-piperidin-1-yl)-methanone] stands 62 nM.
The molecule `CC(Oc1cc(-c2ccc(OCCN3CCCC3)cc2)cnc1N)c1c(Cl)ccc(F)c1Cl` (centres unmarked) [Example I-355, 3-[1-(2,6-Dichlaro-3-fluoro-phenyl)-ethoxy]-5-[4-(2-pyrrolidin-1-yl-ethoxy)-phenyl]-pyridin-2-ylamine] showed an IC50 of 680 nM.
The molecule `CC(Oc1cc(-c2ccc(OCCC3CCCN3C)cc2)cnc1N)c1c(Cl)ccc(F)c1Cl` (centres unmarked) [Example I-356, 3-[1-(2,6-Dichloro-3-fluoro-phenyl)-ethoxy]-5-{4-(2-[1-methyl-pyrrolidin-2-yl)-ethoxy]-phenyl)-pyridin-2-ylamine] came in with an IC50 of 790 nM.
The molecule `CC(Oc1cc(C#CCNC(=O)CN2CCCC2)cnc1N)c1c(Cl)ccc(F)c1Cl` (centres unmarked) [Example I-426, N-(3-{6-Amino-5-[1-(2,6-dichloro-3-fluoro-phenyl)-ynyl)-2-pridin-1-y-ehoxy]-pyridin-3-yf}-prop-2-acetamide] returned an IC50 of less than 9.1 nM.
The same measure, in the same setting: in the case of `Nc1ncc(-c2cccnc2)cc1OCc1ccccc1` [Example I-489, 5-Benzyloxy-[3,3′]bipyridinyl-6-ylamine] it was more than 20000 nM; in that of `Nc1ncc(-c2cccnc2)cc1OCc1c(F)ccc(F)c1Cl` [Example I-501, 5-(2-Chloro-3,6-difluoro-benzyloxy)-[3,3′]bipyridinyl-6-ylamine], 282 nM; in that of `CC(Oc1cc(-c2ccc(C(=O)N3CCN(C)CC3)cn2)cnc1N)c1c(F)ccc(F)c1Cl` (centres unmarked) [Example I-517, {6′-Amino-5′-[1-(2-chloro-3,6-difluoro-phenyl)-ethoxy]-[2,3′]bipyridinyl-5-yl)-(4-methyl-piperazin-1-yl)-methanone], 131 nM.
With `Nc1ncc(-c2ccc(NS(=O)(=O)CCNC3CC3)cc2)nc1OCc1c(F)ccc(F)c1Cl` [II-20, 2-Cyclopropylamino-ethanesulfonic acid {4-[5-amino-6-(2-chloro-3,6-difluoro-benzyloxy)-pyrazin-2-yl]-phenyl}-amide], the IC50 was determined as 1200 nM.
Still for that read-out and setting: in the case of `CN(C)[C@H]1CCN(C(=O)c2cccc(-c3cnc(N)c(OCc4c(F)ccc(F)c4Cl)n3)c2)C1` [II-54, {3-[5-Amino-6-(2-chloro-3,6-difluoro-benzyloxy)-pyrazin-2-yl]-phenyl}-[(3S)-3-dimethylamino-pyrrolidin-1-yl]-methanone] it was 1450 nM.

Staying with this experiment, now noted: Table 1; several values in one cell are separated by /.
`Nc1ncc(Br)cc1OCc1c(F)cccc1Cl` [I(e), 5-Bromo-3-(2-chloro-6-fluoro-benzyloxy)-pyridin-2-ylamine] showed an IC50 of more than 20000 nM.
